Values quoted from earlier work as cited in paper PMC3045272 (Acta Crystallographica Section D: Biological Crystallography, 2011).

System: Cn (calcineurin)
Set-up: method as in Landrieu et al., 2010
Details: modification of the fourth residue; ref Landrieu et al., 2010

Substance: Debio 025
- binding of the compound–CypA complex to Cn: prevents binding of the Debio 025–CypA complex to Cn
